Patent publication US12404295B2, “(Hetero)aryl-methyl-thio-beta-D-galactopyranoside derivatives” (Idorsia Pharmaceuticals Ltd, priority 2019, dated 2025)
Read-outs that look alike come from different tables or passages of the source.

Legend:
human Gal-1 (hGal-1) = human Gal-1 (hGal-1) (Homo sapiens (Human), UniProt P09382); test: competitive binding assay: biotinylated hGal-1 binding to microplate-adsorbed asialofetuin (ASF); conditions: Table 15; read-out: IC50 (Galectin-1 inhibition)
Procedure, shortened: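 Spectrophotometric competition readout: after compound and biotinylated hGal-1 (300-1000 ng/mL) sit 3 h at 4° C on adsorbed asialofetuin, streptavidin-peroxidase (1 h, 4° C) and ABTS reveal residual binding. Reported IC50 values are means of repeat runs.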

human Gal-3 (hGal-3) = human Gal-3 (hGal-3) (Homo sapiens (Human), UniProt P17931); test: competitive binding assay: biotinylated hGal-3 binding to microplate-adsorbed asialofetuin (ASF)
Procedure, shortened: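 Serial DMSO dilutions of each compound; binding incubation of 3 hours at 4 °C with cold-buffer washes; detection using 80 ng/mL streptavidin-peroxidase for 1 hour, then ABTS. Multiple determinations were averaged to give the IC50.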

[1] = Table 10, 2-OMe-Gal inhibitors, read-out: IC50 (Gal-3 inhibition)
[2] = Gal-3 inhibition, binding of biotinylated hGal-3 to ASF, mean values, read-out: IC50
[3] = Table 9, 2-OMe-Gal inhibitors, read-out: IC50 (Gal-3 inhibition)

Chain of human Gal-3 (hGal-3) (P17931 whole entry): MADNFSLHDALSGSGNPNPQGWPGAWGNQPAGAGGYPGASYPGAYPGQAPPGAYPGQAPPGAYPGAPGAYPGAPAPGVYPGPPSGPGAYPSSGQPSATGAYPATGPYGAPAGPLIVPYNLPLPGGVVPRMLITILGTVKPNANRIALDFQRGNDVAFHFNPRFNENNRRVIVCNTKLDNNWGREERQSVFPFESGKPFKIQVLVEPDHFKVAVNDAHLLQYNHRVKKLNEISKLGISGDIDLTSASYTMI
Chain of human Gal-1 (hGal-1) (P09382 whole entry): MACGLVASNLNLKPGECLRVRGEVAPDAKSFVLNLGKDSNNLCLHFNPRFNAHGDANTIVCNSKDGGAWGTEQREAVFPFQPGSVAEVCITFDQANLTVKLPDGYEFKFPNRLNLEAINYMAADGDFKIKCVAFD

CO[C@@H]1[C@@H](n2cc(-c3cc(F)c(F)c(F)c3)nn2)[C@@H](O)[C@@H](CO)O[C@H]1SC(c1nccnc1Cl)C1(O)CCC(F)(F)CC1 (stereo partly drawn) [Example 2.44.133.I., (2R,3R,4S,5R,6S)-6-(((3-Chloropyrazin-2-yl)(4,4-difluoro-1-hydroxycyclohexyl)methyl)thio)-2-(hydroxymethyl)-5-methoxy-4-(4-(3,4,5-trifluorophenyl)-1H-1,2,3-triazol-1-yl)tetrahydro-2H-pyran-3-ol]
IC50 (human Gal-1 (hGal-1)): 1220 nM | IC50 (human Gal-3 (hGal-3); [1]): 170 nM

OC[C@H]1O[C@@H](S[C@H](c2nccnc2Cl)C2(O)CCC(F)(F)CC2)[C@H](O)[C@@H](n2cc(-c3cc(F)c(F)c(F)c3)nn2)[C@H]1O [Example 2.44.133R., (2S,3R,4S,5R,6R)-2-(((R)-(3-Chloropyrazin-2-yl)(4,4-difluoro-1-hydroxycyclohexyl)methyl)thio)-6-(hydroxymethyl)-4-(4-(3,4,5-trifluorophenyl)-1H-1,2,3-triazol-1-yl)tetrahydro-2H-pyran-3,5-diol]
IC50 (human Gal-1 (hGal-1)): 160 nM | IC50 (human Gal-3 (hGal-3); [2]): 20 nM

CO[C@@H]1[C@@H](n2cc(-c3cc(F)c(F)c(F)c3)nn2)[C@@H](O)[C@@H](CO)O[C@H]1S[C@H](c1nccnc1Cl)C1(O)CCC(F)(F)CC1 [Example 2.44.133R.I., (2R,3R,4S,5R,6S)-6-(((R)-(3-Chloropyrazin-2-yl)(4,4-difluoro-1-hydroxycyclohexyl)methyl)thio)-2-(hydroxymethyl)-5-methoxy-4-(4-(3,4,5-trifluorophenyl)-1H-1,2,3-triazol-1-yl)tetrahydro-2H-pyran-3-ol [1,3-di-deoxy-1-((4,4-difluoro-1-hydroxy-cyclohexan-1-yl)-(3-(-chloro)pyrazin-2-yl)methyl-(R)-thio)-2-O-methyl-3-[4-(3,4,5-trifluorophenyl)-1H-1,2,3-triazol-1-yl]-b-D-galactopyranoside]]
IC50 (human Gal-1 (hGal-1)): 660 nM | IC50 (human Gal-3 (hGal-3); [1]): 40 nM

OC[C@H]1O[C@@H](S[C@@H](c2nccnc2Cl)C2(O)CCC(F)(F)CC2)[C@H](O)[C@@H](n2cc(-c3cc(F)c(F)c(F)c3)nn2)[C@H]1O [Example 2.44.133S., (2S,3R,4S,5R,6R)-2-(((S)-(3-Chloropyrazin-2-yl)(4,4-difluoro-1-hydroxycyclohexyl)methyl)thio)-6-(hydroxymethyl)-4-(4-(3,4,5-trifluorophenyl)-1H-1,2,3-triazol-1-yl)tetrahydro-2H-pyran-3,5-diol]
IC50 (human Gal-1 (hGal-1)): 15800 nM | IC50 (human Gal-3 (hGal-3); [2]): 1830 nM

CO[C@@H]1[C@@H](n2cc(-c3cc(F)c(F)c(F)c3)nn2)[C@@H](O)[C@@H](CO)O[C@H]1S[C@@H](c1nccnc1Cl)C1(O)CCC(F)(F)CC1 [Example 2.44.133S.I., (2R,3R,4S,5R,6S)-6-(((S)-(3-Chloropyrazin-2-yl)(4,4-difluoro-1-hydroxycyclohexyl)methyl)thio)-2-(hydroxymethyl)-5-methoxy-4-(4-(3,4,5-trifluorophenyl)-1H-1,2,3-triazol-1-yl)tetrahydro-2H-pyran-3-ol]
IC50 (human Gal-1 (hGal-1)): 7540 nM | IC50 (human Gal-3 (hGal-3); [1]): 2710 nM

OC[C@H]1O[C@@H](SC(c2ncccc2C2CC2)C2(O)CCC(F)(F)CC2)[C@H](O)[C@@H](n2cc(-c3cc(F)c(F)c(F)c3)nn2)[C@H]1O (stereo partly drawn) [Example 2.44.134., (2S,3R,4S,5R,6R)-2-(((3-Cyclopropylpyridin-2-yl)(4,4-difluoro-1-hydroxycyclohexyl)methyl)thio)-6-(hydroxymethyl)-4-(4-(3,4,5-trifluorophenyl)-1H-1,2,3-triazol-1-yl)tetrahydro-2H-pyran-3,5-diol]
IC50 (human Gal-1 (hGal-1)): 140 nM | IC50 (human Gal-3 (hGal-3); [2]): 70 nM

OC[C@H]1O[C@@H](S[C@H](c2ncccc2C2CC2)C2(O)CCC(F)(F)CC2)[C@H](O)[C@@H](n2cc(-c3cc(F)c(F)c(F)c3)nn2)[C@H]1O [Example 2.44.134R., (2S,3R,4S,5R,6R)-2-(((R)-(3-Cyclopropylpyridin-2-yl)(4,4-difluoro-1-hydroxycyclohexyl)methyl)thio)-6-(hydroxymethyl)-4-(4-(3,4,5-trifluorophenyl)-1H-1,2,3-triazol-1-yl)tetrahydro-2H-pyran-3,5-diol]
IC50 (human Gal-1 (hGal-1)): 50 nM | IC50 (human Gal-3 (hGal-3); [2]): 10 nM

CO[C@@H]1[C@@H](n2cc(-c3cc(F)c(F)c(F)c3)nn2)[C@@H](O)[C@@H](CO)O[C@H]1S[C@H](c1ncccc1C1CC1)C1(O)CCC(F)(F)CC1 [Example 2.44.134R.I., (2R,3R,4S,5R,6S)-6-(((R)-(3-Cyclopropylpyridin-2-yl)(4,4-difluoro-1-hydroxycyclohexyl)methyl)thio)-2-(hydroxymethyl)-5-methoxy-4-(4-(3,4,5-trifluorophenyl)-1H-1,2,3-triazol-1-yl)tetrahydro-2H-pyran-3-ol [1,3-di-deoxy-1-((4,4-difluoro-1-hydroxy-cyclohexan-1-yl)-(3-(-cyclopropyl)pyridin-2-yl)methyl-(R)-thio)-2-O-methyl-3-[4-(3,4,5-trifluorophenyl)-1H-1,2,3-triazol-1-yl]-b-D-galactopyranoside]]
IC50 (human Gal-1 (hGal-1)): 110 nM | IC50 (human Gal-3 (hGal-3); [3]): 60 nM

OC[C@H]1O[C@@H](S[C@@H](c2ncccc2C2CC2)C2(O)CCC(F)(F)CC2)[C@H](O)[C@@H](n2cc(-c3cc(F)c(F)c(F)c3)nn2)[C@H]1O [Example 2.44.134S., (2S,3R,4S,5R,6R)-2-(((S)-(3-Cyclopropylpyridin-2-yl)(4,4-difluoro-1-hydroxycyclohexyl)methyl)thio)-6-(hydroxymethyl)-4-(4-(3,4,5-trifluorophenyl)-1H-1,2,3-triazol-1-yl)tetrahydro-2H-pyran-3,5-diol]
IC50 (human Gal-1 (hGal-1)): 2700 nM | IC50 (human Gal-3 (hGal-3); [2]): 700 nM

Cc1ccnnc1C(S[C@@H]1O[C@H](CO)[C@H](O)[C@H](n2cc(-c3cc(F)c(F)c(F)c3)nn2)[C@H]1O)C1(O)CCC(F)(F)CC1 (stereo partly drawn) [Example 2.44.135., (2S,3R,4S,5R,6R)-2-(((4,4-Difluoro-1-hydroxycyclohexyl)(4-methylpyridazin-3-yl)methyl)thio)-6-(hydroxymethyl)-4-(4-(3,4,5-trifluorophenyl)-1H-1,2,3-triazol-1-yl)tetrahydro-2H-pyran-3,5-diol]
IC50 (human Gal-1 (hGal-1)): 450 nM | IC50 (human Gal-3 (hGal-3); [2]): 70 nM

Cc1ccnnc1[C@@H](S[C@@H]1O[C@H](CO)[C@H](O)[C@H](n2cc(-c3cc(F)c(F)c(F)c3)nn2)[C@H]1O)C1(O)CCC(F)(F)CC1 [Example 2.44.135R., (2S,3R,4S,5R,6R)-2-(((R)-(4,4-Difluoro-1-hydroxycyclohexyl)(4-methylpyridazin-3-yl)methyl)thio)-6-(hydroxymethyl)-4-(4-(3,4,5-trifluorophenyl)-1H-1,2,3-triazol-1-yl)tetrahydro-2H-pyran-3,5-diol]
IC50 (human Gal-1 (hGal-1)): 220 nM | IC50 (human Gal-3 (hGal-3); [2]): 40 nM

CO[C@@H]1[C@@H](n2cc(-c3cc(F)c(F)c(F)c3)nn2)[C@@H](O)[C@@H](CO)O[C@H]1S[C@H](c1nnccc1C)C1(O)CCC(F)(F)CC1 [Example 2.44.135R.I., (2R,3R,4S,5R,6S)-6-(((R)-(4,4-Difluoro-1-hydroxycyclohexyl)(4-methylpyridazin-3-yl)methyl)thio)-2-(hydroxymethyl)-5-methoxy-4-(4-(3,4,5-trifluorophenyl)-1H-1,2,3-triazol-1-yl)tetrahydro-2H-pyran-3-ol]
IC50 (human Gal-1 (hGal-1)): 200 nM | IC50 (human Gal-3 (hGal-3); [3]): 70 nM

Cc1ccnnc1[C@H](S[C@@H]1O[C@H](CO)[C@H](O)[C@H](n2cc(-c3cc(F)c(F)c(F)c3)nn2)[C@H]1O)C1(O)CCC(F)(F)CC1 [Example 2.44.135S., (2S,3R,4S,5R,6R)-2-(((S)-(4,4-Difluoro-1-hydroxycyclohexyl)(4-methylpyridazin-3-yl)methyl)thio)-6-(hydroxymethyl)-4-(4-(3,4,5-trifluorophenyl)-1H-1,2,3-triazol-1-yl)tetrahydro-2H-pyran-3,5-diol]
IC50 (human Gal-1 (hGal-1)): 5430 nM | IC50 (human Gal-3 (hGal-3); [2]): 2790 nM

CO[C@@H]1[C@@H](n2cc(-c3cc(F)c(F)c(F)c3)nn2)[C@@H](O)[C@@H](CO)O[C@H]1SC(c1c(C)cnn1C)C1(O)CCC(F)(F)CC1 (stereo partly drawn) [Example 2.44.136.I., (2R,3R,4S,5R,6S)-6-(((4,4-Difluoro-1-hydroxycyclohexyl)(1,4-dimethyl-1H-pyrazol-5-yl)methyl)thio)-2-(hydroxymethyl)-5-methoxy-4-(4-(3,4,5-trifluorophenyl)-1H-1,2,3-triazol-1-yl)tetrahydro-2H-pyran-3-ol]
IC50 (human Gal-1 (hGal-1)): 2530 nM | IC50 (human Gal-3 (hGal-3); [1]): 420 nM

CO[C@@H]1[C@@H](n2cc(-c3cc(F)c(F)c(F)c3)nn2)[C@@H](O)[C@@H](CO)O[C@H]1S[C@H](c1c(C)cnn1C)C1(O)CCC(F)(F)CC1 [Example 2.44.136R.I., (2R,3R,4S,5R,6S)-6-(((R)-(4,4-Difluoro-1-hydroxycyclohexyl)(1,4-dimethyl-1H-pyrazol-5-yl)methyl)thio)-2-(hydroxymethyl)-5-methoxy-4-(4-(3,4,5-trifluorophenyl)-1H-1,2,3-triazol-1-yl)tetrahydro-2H-pyran-3-ol]
IC50 (human Gal-1 (hGal-1)): 1900 nM | IC50 (human Gal-3 (hGal-3); [1]): 260 nM

CO[C@@H]1[C@@H](n2cc(-c3cc(F)c(F)c(F)c3)nn2)[C@@H](O)[C@@H](CO)O[C@H]1S[C@@H](c1c(C)cnn1C)C1(O)CCC(F)(F)CC1 [Example 2.44.136S.I., (2R,3R,4S,5R,6S)-6-(((S)-(4,4-Difluoro-1-hydroxycyclohexyl)(1,4-dimethyl-1H-pyrazol-5-yl)methyl)thio)-2-(hydroxymethyl)-5-methoxy-4-(4-(3,4,5-trifluorophenyl)-1H-1,2,3-triazol-1-yl)tetrahydro-2H-pyran-3-ol]
IC50 (human Gal-1 (hGal-1)): > 100000 nM | IC50 (human Gal-3 (hGal-3); [1]): 15600 nM
